The text below walks through data of patent US7902204B2 (priority 2003, dated 2011).

Some results are limits rather than exact numbers.

This assay has as its system HIV-1 single-round infectious reporter virus. Put plainly: Single-round infectious HIV-1 luciferase reporter virus infection of HeLa CD4 CCR5 cells. Type of assay: cell-based. The following applies: Human immunodeficiency virus 1, HeLa-CD4/CCR5, 72 h, read-out: EC50 Group from Table 1. How it is done: • Virus production—Human embryonic Kidney cell line, 293, propagated in Dulbecco's Modified Eagle Medium (Life Technologies, Gaithersburg, Md.) containing 10% fetal Bovine serum (FBS, Sigma, St. Louis, Mo.). • Virus infection—Human epithelial cell line, HeLa, expressing the HIV-1 receptors CD4 and CCR5 was propagated in Dulbecco's Modified Eagle Medium (Life Technologies, Gaithersburg, Md.) containing 10% fetal Bovine serum (FBS, Sigma, St. Louis, Mo.) and supplemented with 0.2 mg/mL Geneticin (Life Technologies, Gaithersburg, Md.) and 0.4 mg/mL Zeocin (Invitrogen, Carlsbad, Calif.). Virus-Single-round infectious reporter virus was produced by co-transfecting human embryonic Kidney 293 cells with an HIV-1 envelope DNA expression vector and a proviral cDNA containing an envelope deletion mutation and the luciferase reporter gene inserted in place of HIV-1 nef sequences (Chen et al, Ref 41). Transfections were performed using lipofectAMINE PLUS reagent as described by the manufacturer (Life Technologies, Gaithersburg, Md.). Experiment • 1. Compound was added to HeLa CD4 CCR5 cells plated in 96 well plates at a cell density of 1×10^4 cells per well in 100 μl Dulbecco's Modified Eagle Medium containing 10% fetal Bovine serum at a concentration of <20 μM. • 2. 100 μl of single-round infectious reporter virus in Dulbecco's Modified Eagle Medium was then added to the plated cells and compound at an approximate multiplicity of infection (MOI) of 0.01, resulting in a final volume of 200 μl per well and a final compound concentration of <10 μM. • 3. Samples were harvested 72 h after infection. • 4. Viral infection was monitored by measuring luciferase expression from viral DNA in the infected cells using a luciferase reporter gene assay kit (Roche Molecular Biochemicals, Indianapolis, Ind.). Infected cell supernatants were removed and 50 μl of Dulbecco's Modified Eagle Medium (without phenol red) and 50 μl of luciferase assay reagent reconstituted as described by the manufacturer (Roche Molecular Biochemicals, Indianapolis, Ind.) was added per well. Luciferase activity was then quantified by measuring luminescence using a Wallac microbeta scintillation counter. • 5. The percent inhibition for each compound was calculated by quantifying the level of luciferase expression in cells infected in the presence of each compound as a percentage of that observed for cells infected in the absence of compound and subtracting such a determined value from 100. • 6. An EC50 provides a method for comparing the antiviral potency of the compounds of this invention. The effective concentration for fifty percent inhibition (EC50) was calculated with the Microsoft Excel Xlfit curve fitting software. For each compound, curves were generated from percent inhibition calculated at 10 different concentrations by using a four paramenter logistic model (model 205). Table 1 is the key for the data in Tables 2-4.
(In general: In a reporter assay the amount or activity of a reporter protein is the signal.)
A word on the EC50: it is the concentration giving half of the maximal effect. Regarding `O=C(C(=O)N1CCN(C(=O)c2ccccc2)CC1)c1c[nH]c2c(Cl)ncnc12` [Example 2, 1-(4-Benzoyl-piperazin-1-yl)-2-(4-chloro-5H-pyrrolo[3,2-d]pyrimidin-7-yl)-ethane-1,2-dione], the EC50 was less than 1 µM.

With `O=C(C(=O)N1CCN(C(=O)c2ccccc2)CC1)c1c[nH]c2c(-c3cc[nH]n3)ncnc12` [Example 22, 1-(4-(1H-Pyrazol-3-yl)-5H-pyrrolo[3,2-d]pyrimidin-7-yl)-2-(4-benzoylpiperazin-1-yl)ethane-1,2-dione], the EC50 was less than 1 µM.

Consider `O=C(C(=O)N1CCN(C(=O)c2ccccc2)CC1)c1c[nH]c2c(-n3ccnn3)ncnc12` [Example 21, 1-(4-(1H-1,2,3-Triazol-1-yl)-5H-pyrrolo[3,2-d]pyrimidin-7-yl)-2-(4-benzoylpiperazin-1-yl)ethane-1,2-dione], for which the EC50 is less than 1 µM.
